Source: publication PMC8070745, “FEN1 Blockade for Platinum Chemo-Sensitization and Synthetic Lethality in Epithelial Ovarian Cancers” (Cancers, 2021)

What was measured:
A2780cis cells = assay: Clonogenic assay, A2780cis; format: cell-based, human; conditions: pre-treatment with importin β inhibitor, then cisplatin vs cisplatin only
Method: Clonogenic assay: In the clonogenic assay (colony formation assays), 32 cells/cm2 were seeded in 6-well plates and left at 37°C in a 5% CO2 atmosphere. Cisplatin (5µM) and/or FEN1i (10µM) and/or Importazole (5 µM, Selleckem, S8446 ) were added at the indicated concentrations and the plates were left at 37 °C in a 5% CO 2 atmosphere for 14 days. Later, the plates were washed with PBS, fixed and stained with a crystal violet, acetic acid and methanol solution and colonies were counted. […]

[1] = system: FEN1 nuclear localization in A2780cis cells; assay: Confocal microscopy of FEN1 nuclear localization, A2780cis; format: cell-based, human; conditions: pre-treatment with importin β inhibitor (5 µM) followed by cisplatin
Method: For PEO1 and PEO4 cells, the cells where keep in culture up to four weeks ([…]) until spheroids structures were formed.
To quantify cell viability, LIVE/DEAD Viability/Cytotoxicity Kit (L3224, Thermo Fisher Scientific) was used. Briefly, the spheroids were harvest by trypsinization, washed with PBS and centrifuge at 1000×g for 5 minutes. The light-protected cellular pellet in PBS was loaded with 0.1µM of Calcein-AM and 1 µM of Ethidium homodimer-1 for 20 minutes at room temperature. The samples were analysed on a Beckman-Coulter FC500 flow cytometer using a 495nm laser for excitation and a 515nm laser for emission data for Calcein AM and a 495nm laser for excitation and emission at 635nm for Ethidium Homodimer-1. In addition, Image J software was used to calculate spheroid diameter. Mean of three diagonal diameters was taken as diameter for each spheroid. At least 10 spheroids were measured. […]
Laboratories). Imaging was carried out using Leica SP2 confocal laser scanning microscope (CLSM) and analysed with ImageJ software (NIH, USA). For analysis a minimum of 100 cells per slide were counted.
On 3D structures, the spheroids were fixed with 4% paraformaldehyde for 30 minutes. […] Imaging was carried out using Leica SP2 confocal laser scanning microscope (CLSM) and analysed with ImageJ software (NIH, USA). […]

[2] = system: BRCA deficient germ-line or platinum-sensitive sporadic epithelial ovarian cancers; design: method as in PMID 22452356, PMID 27717299, PMID 28916367, PMID 27908594; conditions: maintenance therapy in patients; cited from earlier work

Row | SMILES | effect on cisplatin sensitivity (A2780cis cells) | nuclear localization of FEN1 [1] | progression-free survival [2]
1 | CC(Nc1nc(N2CCCC2)nc2ccccc12)c1ccccc1 (centres unmarked) [Importanzole] | re-sensitized these cells to cisplatin therapy | reduced nuclear localization of FEN1 | 
2 | NC(=O)c1cccc2cn(-c3ccc([C@@H]4CCCNC4)cc3)nc12 [Niraparib] |  |  | substantially improves progression-free survival
3 | O=C(c1cc(Cc2n[nH]c(=O)c3ccccc23)ccc1F)N1CCN(C(=O)C2CC2)CC1 [Olaparib] |  |  | substantially improves progression-free survival
4 | CNCc1ccc(-c2[nH]c3cc(F)cc4c3c2CCNC4=O)cc1 [Rucaparib] |  |  | substantially improves progression-free survival
